According to patent US11492340B2 (priority 2017, dated 2022):
“And” between values parts separate entries of the source, which are not always exact repeats. Equal values may be shown once. Read-outs that look alike come from different tables or passages of the source.

Tests used:
[1] = molecular target: T1, isopropyl phosphate-aged eeAChE (Electrophorus electricus, UniProt O42275); type: biochemical, electric eel
T1 construct: purchased Sigma Aldrich

[2] = molecular target: T2, methylphosphonate-aged AChE (Electrophorus electricus, UniProt O42275); type: biochemical, electric eel
T2 construct: purchased Sigma Aldrich

[3] = molecular target: T3, methylphosphonate-aged eeAChE (Electrophorus electricus, UniProt O42275); type: biochemical, electric eel; conditions: for screening efficacy, relative activity (FIG. 3B), in words: pH 8
T3 construct: purchased Sigma Aldrich

[4] = molecular target: T1, isopropyl phosphate-aged eeAChE; type: biochemical, electric eel; remark: listed apart in the source
[5] = molecular target: T3, methylphosphonate-aged eeAChE; type: biochemical, electric eel
[6] = molecular target: T1, isopropyl phosphate-aged eeAChE; type: biochemical, electric eel; remark: listed apart in the source
[7] = molecular target: isopropyl phosphate-aged (DFP-treated) recombinant huAChE (Homo sapiens, UniProt P22303); type: biochemical; conditions: pH 9
[8] = molecular target: T1, isopropyl phosphate-aged eeAChE; type: biochemical, electric eel; conditions: pH 8
[9] = physchem; conditions: pH 6
[10] = molecular target: T3, methylphosphonate-aged eeAChE; assay: biochemical; set-up: species or system electric eel
[11] = molecular target: T3, methylphosphonate-aged eeAChE; type: biochemical, electric eel; conditions: pH 8
[12] = molecular target: T1, isopropyl phosphate-aged eeAChE; assay: biochemical; set-up: species or system electric eel

T2 sequence (O42275 24-633): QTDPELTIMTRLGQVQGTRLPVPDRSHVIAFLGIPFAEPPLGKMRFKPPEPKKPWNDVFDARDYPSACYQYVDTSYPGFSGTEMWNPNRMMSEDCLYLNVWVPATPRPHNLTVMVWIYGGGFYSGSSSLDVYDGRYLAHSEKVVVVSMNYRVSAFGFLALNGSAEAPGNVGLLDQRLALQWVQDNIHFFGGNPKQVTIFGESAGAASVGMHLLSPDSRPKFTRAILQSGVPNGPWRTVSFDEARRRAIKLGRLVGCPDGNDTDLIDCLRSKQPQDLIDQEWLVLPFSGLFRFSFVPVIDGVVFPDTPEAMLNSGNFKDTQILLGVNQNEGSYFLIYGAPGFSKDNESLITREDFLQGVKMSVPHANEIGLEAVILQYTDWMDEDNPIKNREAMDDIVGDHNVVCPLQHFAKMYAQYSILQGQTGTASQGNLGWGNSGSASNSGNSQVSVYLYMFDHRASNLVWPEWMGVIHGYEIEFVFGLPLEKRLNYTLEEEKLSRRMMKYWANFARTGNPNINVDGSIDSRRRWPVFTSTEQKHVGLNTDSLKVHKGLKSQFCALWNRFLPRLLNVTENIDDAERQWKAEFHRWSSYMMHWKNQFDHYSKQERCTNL
T3 sequence (O42275 24-633): as above
T1 sequence (O42275 24-633): as above
Chain of isopropyl phosphate-aged (DFP-treated) recombinant huAChE (P22303 32-614): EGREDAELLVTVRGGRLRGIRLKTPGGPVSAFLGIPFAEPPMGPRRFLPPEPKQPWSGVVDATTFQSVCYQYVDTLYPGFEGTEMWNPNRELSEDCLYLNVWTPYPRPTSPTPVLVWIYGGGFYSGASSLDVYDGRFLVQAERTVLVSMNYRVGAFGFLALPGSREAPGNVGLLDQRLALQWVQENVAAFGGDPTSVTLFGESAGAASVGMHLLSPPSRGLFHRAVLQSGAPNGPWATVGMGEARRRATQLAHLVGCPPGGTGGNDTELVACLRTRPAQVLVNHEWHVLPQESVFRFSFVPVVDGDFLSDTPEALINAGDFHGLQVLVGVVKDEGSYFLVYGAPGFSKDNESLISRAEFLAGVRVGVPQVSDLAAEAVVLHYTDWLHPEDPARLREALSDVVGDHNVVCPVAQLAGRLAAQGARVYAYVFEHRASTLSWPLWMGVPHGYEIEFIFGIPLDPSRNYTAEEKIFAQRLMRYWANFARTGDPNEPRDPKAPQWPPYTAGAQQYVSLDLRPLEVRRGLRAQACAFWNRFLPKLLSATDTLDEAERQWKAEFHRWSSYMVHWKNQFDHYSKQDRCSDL

Question: For `C[n+]1ccccc1/C=N/O` [2-PAM, 2-pralidoxime, reference compound], which “Percentage of AChE species: Aged” value [1] is on record?
Answer: 100%

Question: And the “Percentage of AChE species: Native” value [1]?
Answer: 0%

Question: And the “Percentage of AChE species: Realkylated” value [1]?
Answer: 0%

Question: What about the “Percentage of AChE species: Aged” value [2] of the same molecule?
Answer: 100%

Question: And the “Percentage of AChE species: Native” value [2]?
Answer: 0%

Question: What about the “Percentage of AChE species: Realkylated” value [2] of the same molecule?
Answer: 0%

Question: Which “screening efficacy, relative activity (FIG. 3B), in words” value [3] does the source give for `CCN(CC)Cc1ncccc1O` [C7, 2-((diethylamino)methyl)pyridin-3-ol] here?
Answer: highest efficacy among C1 to C7

Question: What does the source list for `Oc1cccnc1CN1CCCC1` [C8, 2-(pyrrolidin-1-ylmethyl)pyridin-3-ol]?
Answer: Relative activity (percentage of positive control) ([4]; pH 6): 0.68 ± 0.06%; Relative activity (percentage of positive control) ([4]; pH 7): 1.04 ± 0.07%; Relative activity (percentage of positive control) ([4]; pH 8): 3.58 ± 0.33%; Relative activity (percentage of positive control) ([4]; pH 9): 5.27 ± 0.59%; Percentage of AChE species: Aged [1]: 84.6%; Percentage of AChE species: Native [1]: 15.4%; Percentage of AChE species: Realkylated [1]: 0%; Relative activity (percentage of positive control) ([5]; pH 6): 0.273 ± 0.004%; Relative activity (percentage of positive control) ([5]; pH 7): 1.24 ± 0.02%; Relative activity (percentage of positive control) ([5]; pH 8): 8.47 ± 0.17%; reactivation (resurrection of AChE activity) [6]: 1.25%; Percentage of AChE species: Aged [2]: 97.9%; Percentage of AChE species: Native [2]: 2.1%; Percentage of AChE species: Realkylated [2]: 0%; aged enzyme resurrected [7]: 18%; activity in comparison of scaffolds with pyrrolidine leaving group (M series), in words [3]: only active compound in this comparison; reactivation (resurrection of AChE activity) [3]: ~2.5%; screening efficacy, relative activity (FIG. 3B), in words [3]: most potent candidate in this screen; apparent reaction rate [8]: 0.20 % per hour; resurrected relative activity [8]: 20.4% and 30.4%; pKa [9]: 7 to 8; EC50 [10]: 1.18 mM; apparent reaction rate [11]: 0.32 % per hour; resurrected relative activity [11]: 32.7%; EC50 [12]: 5.87 mM
